The values that follow come from article PMC11174489, “In Vitro Activation of Human Adrenergic Receptors and Trace Amine-Associated Receptor 1 by Phenethylamine Analogues Present in Food Supplements” (Nutrients, 2024).

Some results are limits rather than exact numbers.

The first assay has as its target T1, human adrenergic receptor (ADR) α1A (Homo sapiens, UniProt P35348).
T1 construct: host or cells: rat chem-1 cells
T1 sequence (P35348 1-466): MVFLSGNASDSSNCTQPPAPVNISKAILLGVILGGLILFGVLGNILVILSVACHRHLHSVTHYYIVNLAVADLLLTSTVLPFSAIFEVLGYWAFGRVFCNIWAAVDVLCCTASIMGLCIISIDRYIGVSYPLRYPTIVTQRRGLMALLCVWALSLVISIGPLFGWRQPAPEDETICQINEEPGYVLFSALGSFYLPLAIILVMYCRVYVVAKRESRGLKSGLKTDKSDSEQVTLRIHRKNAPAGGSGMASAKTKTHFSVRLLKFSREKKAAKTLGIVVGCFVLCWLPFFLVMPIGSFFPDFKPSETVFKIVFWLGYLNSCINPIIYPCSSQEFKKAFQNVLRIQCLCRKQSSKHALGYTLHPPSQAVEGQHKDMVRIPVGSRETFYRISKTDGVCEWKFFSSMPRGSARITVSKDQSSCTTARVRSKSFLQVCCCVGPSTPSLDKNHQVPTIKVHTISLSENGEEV
Briefly: ADRα1A activation, Ca2+ influx (Fluo-8) in overexpressing chem-1 cells. To be noted: % of maximal signal obtained by adrenaline; average (95% CI). It is filed as cell-based.
As to `CC(C)CC(C)N` (centres unmarked), the “ADRα1A Emax” value was “-”.

With `CC(C)CCCC(C)N` (centres unmarked), the “ADRα1A Emax” value is given as “-”.

On to `CCC(C)CC(C)N` (centres unmarked) [1,3-Dimethylamylamine, 1,3-dimethylamylamine], for which the “ADRα1A Emax” value was “-”.

Regarding `CN(C)CCO` [Dimethylaminoethanol, dimethylaminoethanol], the “ADRα1A Emax” value is “-”.

`CN(C)CCc1ccccc1` [Dimethylphenethylamine, N,N-dimethylphenethylamine]: the “ADRα1A Emax” value is recorded as “-”.

For `Oc1ccc(CC2NCCc3cc(O)c(O)cc32)cc1` (centres unmarked) [Higenamine, higenamine], the “ADRα1A Emax” value is “-”.

For `CN(C)CCc1ccc(O)cc1` [Hordenine, hordenine], the “ADRα1A Emax” value is given as “-”.

Still in this assay, the particulars now being: Ca2+ response, chem-1 cells; average (95% confidence interval), 7–9 experiments.
In turn, `CC(C)CC(C)N` (centres unmarked) showed an EC50 of more than 300 µM.

`CC(C)CCCC(C)N` (centres unmarked): the EC50 is more than 300 µM.

`CCC(C)CC(C)N` (centres unmarked) [1,3-Dimethylamylamine, 1,3-dimethylamylamine]: the EC50 was more than 300 µM.

For `CN(C)CCO` [Dimethylaminoethanol, dimethylaminoethanol], the EC50 is more than 300 µM.

Turning to `CN(C)CCc1ccccc1` [Dimethylphenethylamine, N,N-dimethylphenethylamine], the EC50 is more than 300 µM.

`Oc1ccc(CC2NCCc3cc(O)c(O)cc32)cc1` (centres unmarked) [Higenamine, higenamine] showed an EC50 of more than 300 µM.

With `CN(C)CCc1ccc(O)cc1` [Hordenine, hordenine], the EC50 is more than 300 µM.

Another assay has as its target T2, human adrenergic receptor (ADR) α1B (Homo sapiens, UniProt P35368).
T2 construct: host or cells: rat chem-1 cells
T2 sequence (P35368 1-520): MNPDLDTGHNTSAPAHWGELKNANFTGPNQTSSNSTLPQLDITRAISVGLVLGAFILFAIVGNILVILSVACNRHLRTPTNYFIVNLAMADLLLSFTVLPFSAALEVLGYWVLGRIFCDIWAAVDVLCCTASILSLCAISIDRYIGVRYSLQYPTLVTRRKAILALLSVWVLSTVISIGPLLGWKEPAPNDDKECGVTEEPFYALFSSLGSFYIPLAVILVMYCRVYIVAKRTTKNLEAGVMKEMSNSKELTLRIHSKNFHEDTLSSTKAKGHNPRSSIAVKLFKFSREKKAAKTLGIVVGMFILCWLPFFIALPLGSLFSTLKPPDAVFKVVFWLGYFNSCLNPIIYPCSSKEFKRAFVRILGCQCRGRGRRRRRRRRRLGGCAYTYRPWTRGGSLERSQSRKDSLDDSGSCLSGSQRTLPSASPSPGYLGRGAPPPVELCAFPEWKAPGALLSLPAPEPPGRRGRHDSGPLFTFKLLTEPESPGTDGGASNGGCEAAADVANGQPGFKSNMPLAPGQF
Briefly: ADRα1B activation, Ca2+ influx (Fluo-8) in overexpressing chem-1 cells. It is filed as cell-based.
Settings: not given
An excerpt:
Cells overexpressing human ADRs α1A, α1B, α1D, α2A, α2B, β1 and β2 (Eurofins Discovery Services, St. Charles, MO, USA, product numbers: HTS087RTA, HTS158RTA, HTS216RTA, HTS096RTA, HTS157LRTA, HTS104RTA and HTS073RTA, respectively) were used to study the potency (EC50) and efficacy (Emax) of the selected compounds for these receptors by quantifying Ca^2+ influx upon receptor activation. ADRα1A, α1B, α1D, α2A, β1 and β2 were overexpressed in rat chem-1 cells. ADRα2B was overexpressed in HEK293 cells. The cells were seeded (10,000–50,000 cells/well) in a black 96-well plate (VWR International, Leuven, Belgium) and incubated at 37 °C and 5% CO2 for 24 h. After 24 h, the cells were washed with Hank’s balanced salt solution (HBSS) (Gibco, Paisley, UK) containing 0.35 g/L sodium bicarbonate and incubated with 5 µg/mL Fluo-8 AM in HBSS (pH 7.4) supplemented with 2.5 mM probenecid for 1 h. […] Peak tops of the obtained fluorescence response–time curves were corrected for baseline fluorescence and used to construct concentration–response relationships.
Concentration–response relationships for TAAR1 activation are presented as percentages of the maximal intracellular cAMP level induced by full the TAAR1 agonist phenethylamine and corrected for baseline cAMP accumulation. […] Experiments were run in duplicate in 7–9 independent experiments for ADR and were run in 3–5 independent experiments for TAAR1.
For `CC(C)CC(C)N` (centres unmarked), the EC50 is more than 300 µM.

With `CC(C)CCCC(C)N` (centres unmarked), the EC50 was more than 300 µM.

On to `CCC(C)CC(C)N` (centres unmarked) [1,3-Dimethylamylamine, 1,3-dimethylamylamine], for which the EC50 was more than 300 µM.

In turn, `CN(C)CCO` [Dimethylaminoethanol, dimethylaminoethanol] registered an EC50 of more than 300 µM.

`CN(C)CCc1ccccc1` [Dimethylphenethylamine, N,N-dimethylphenethylamine]: the concentration for a half-maximal effect (EC50) is 6.1 µM.

In turn, `Oc1ccc(CC2NCCc3cc(O)c(O)cc32)cc1` (centres unmarked) [Higenamine, higenamine] registered an EC50 of more than 300 µM.

For the molecule `CN(C)CCc1ccc(O)cc1` [Hordenine, hordenine], a half-maximal effect (EC50) was put at 5.7 µM.

Still in this assay, the particulars now being: % of maximal signal obtained by adrenaline; average (95% CI).
`CC(C)CC(C)N` (centres unmarked): the “ADRα1B Emax” value is “-”.

Take `CC(C)CCCC(C)N` (centres unmarked): the “ADRα1B Emax” value is “-”.

On to `CCC(C)CC(C)N` (centres unmarked) [1,3-Dimethylamylamine, 1,3-dimethylamylamine], for which the “ADRα1B Emax” value is “-”.

For the molecule `CN(C)CCO` [Dimethylaminoethanol, dimethylaminoethanol], the “ADRα1B Emax” value was “-”.

Turning to `Oc1ccc(CC2NCCc3cc(O)c(O)cc32)cc1` (centres unmarked) [Higenamine, higenamine], the “ADRα1B Emax” value is recorded as “-”.

The assay is the same for the next values; noted with them: Chem-1, read-out: ADRα1B Emax.
`CN(C)CCc1ccccc1` [Dimethylphenethylamine, N,N-dimethylphenethylamine]: the Emax is 19%.

For the molecule `CN(C)CCc1ccc(O)cc1` [Hordenine, hordenine], the Emax turned out to be 37%.

The target in the next assay is T3, human adrenergic receptor (ADR) β2 (Homo sapiens, UniProt P07550).
T3 construct: host or cells: rat chem-1 cells
T3 sequence (P07550 whole entry): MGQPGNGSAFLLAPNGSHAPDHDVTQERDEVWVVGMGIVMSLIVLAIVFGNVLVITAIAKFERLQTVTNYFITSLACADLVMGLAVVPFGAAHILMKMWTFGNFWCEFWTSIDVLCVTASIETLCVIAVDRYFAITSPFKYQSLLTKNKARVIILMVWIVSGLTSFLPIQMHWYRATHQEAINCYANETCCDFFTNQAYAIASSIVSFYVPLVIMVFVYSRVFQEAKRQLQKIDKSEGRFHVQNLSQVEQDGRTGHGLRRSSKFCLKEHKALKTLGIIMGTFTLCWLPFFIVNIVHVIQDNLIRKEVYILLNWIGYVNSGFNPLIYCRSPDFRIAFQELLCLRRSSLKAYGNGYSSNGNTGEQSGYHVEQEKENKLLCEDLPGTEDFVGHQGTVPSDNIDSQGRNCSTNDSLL
Briefly: ADRβ2 activation, Ca2+ influx (Fluo-8) in overexpressing chem-1 cells. It is filed as cell-based. To be noted: % of maximal signal obtained by adrenaline; average (95% CI).
Regarding `CC(C)CC(C)N` (centres unmarked), the “ADRβ2 Emax” value is “-”.

Take `CC(C)CCCC(C)N` (centres unmarked): the “ADRβ2 Emax” value is recorded as “-”.

Regarding `CCC(C)CC(C)N` (centres unmarked) [1,3-Dimethylamylamine, 1,3-dimethylamylamine], the “ADRβ2 Emax” value is on record as “-”.

In the case of `CN(C)CCO` [Dimethylaminoethanol, dimethylaminoethanol], the “ADRβ2 Emax” value is listed as “-”.

On to `CN(C)CCc1ccccc1` [Dimethylphenethylamine, N,N-dimethylphenethylamine], for which the “ADRβ2 Emax” value is listed as “-”.

Turning to `CN(C)CCc1ccc(O)cc1` [Hordenine, hordenine], the “ADRβ2 Emax” value is reported as “-”.

The assay is the same for the next values; noted with them: Ca2+ response, chem-1 cells; average (95% confidence interval), 7–9 experiments.
Consider `CC(C)CC(C)N` (centres unmarked), for which the EC50 was more than 300 µM.

In the case of `CC(C)CCCC(C)N` (centres unmarked), the EC50 is more than 300 µM.

Turning to `CCC(C)CC(C)N` (centres unmarked) [1,3-Dimethylamylamine, 1,3-dimethylamylamine], the EC50 was more than 300 µM.

On to `CN(C)CCO` [Dimethylaminoethanol, dimethylaminoethanol], for which the EC50 is more than 300 µM.

`CN(C)CCc1ccccc1` [Dimethylphenethylamine, N,N-dimethylphenethylamine] had a concentration giving a half-maximal response (EC50) of more than 300 µM.

For the molecule `Oc1ccc(CC2NCCc3cc(O)c(O)cc32)cc1` (centres unmarked) [Higenamine, higenamine], the EC50 was found to be 0.47 µM.

`CN(C)CCc1ccc(O)cc1` [Hordenine, hordenine] returned an EC50 of more than 300 µM.

Still in this assay, the particulars now being: Chem-1.
With `Oc1ccc(CC2NCCc3cc(O)c(O)cc32)cc1` (centres unmarked) [Higenamine, higenamine], the Emax is 31%.

The assay is the same for the next values; noted with them: relative to the full agonist adrenaline.
Consider `Oc1ccc(CC2NCCc3cc(O)c(O)cc32)cc1` (centres unmarked) [Higenamine, higenamine], for which the “potency at ADRβ2, times less potent than adrenaline” value is on record as “seven”.

The target in another assay is T4, human trace amine-associated receptor 1 (TAAR1) (Homo sapiens, UniProt Q96RJ0).
T4 construct: expressed in transfected cells
T4 sequence (Q96RJ0 1-339): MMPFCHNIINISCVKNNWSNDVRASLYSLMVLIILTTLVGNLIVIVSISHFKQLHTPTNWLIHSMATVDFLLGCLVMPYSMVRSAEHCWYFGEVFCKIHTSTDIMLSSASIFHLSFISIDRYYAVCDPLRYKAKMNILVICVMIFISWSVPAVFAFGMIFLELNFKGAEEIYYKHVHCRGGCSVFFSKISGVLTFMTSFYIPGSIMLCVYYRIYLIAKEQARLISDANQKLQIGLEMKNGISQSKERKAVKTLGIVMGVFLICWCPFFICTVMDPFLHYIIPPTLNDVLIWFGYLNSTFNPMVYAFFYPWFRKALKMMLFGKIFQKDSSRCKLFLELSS
The assay can be described thus: TAAR1 activation, intracellular cAMP (ELISA) in HEK293T cells stably expressing human TAAR1. It is filed as cell-based. To be noted: HEK-293T, % of maximal cAMP level obtained by phenethylamine; average (95% CI). The protocol: The cells were seeded (90,000–250,000 cells/well) in a 48-well plate two days before the assay. Two hours before the assay, the cells were incubated with the culture medium containing 10% charcoal-stripped foetal bovine serum (Gibco, Grand Island, NY, USA). The assay was performed in Earle’s balanced salt solution (EBSS) (Gibco, Paisley, UK), containing 15 mM HEPES (Gibco, Paisley, UK), 1 mM IBMX and 0.02% ascorbic acid. First, the cells were pre-incubated for 20 min in the supplemented buffer. Subsequently, the cells were exposed to the test compounds for 1 h in an incubator at 37 °C with 5% CO2. After 1 h, the buffer was discarded and the cells were lysed with 3% trichloroacetic acid and incubated at room temperature on a plate shaker for 2 h. Cell lysates were further diluted and cAMP was measured using a cAMP ELISA kit (Cayman Chemical, Ann Arbor, MI, USA), according to the manufacturer’s protocol.
Concentration–response relationships are shown as mean ± SD.
With `CN(C)CCc1ccccc1` [Dimethylphenethylamine, N,N-dimethylphenethylamine], the Emax stood at 64%.

On to `Oc1ccc(CC2NCCc3cc(O)c(O)cc32)cc1` (centres unmarked) [Higenamine, higenamine], for which the Emax came to 93%.

In turn, `CN(C)CCc1ccc(O)cc1` [Hordenine, hordenine] gave an Emax of 82%.

The same assay, now with this note: HEK-293T, read-out: TAAR1 effect at 300 µM, at 300 µM; % of the maximal effect obtained by phenethylamine; compounds that showed only an effect at 300 µM.
In the case of `CC(C)CCCC(C)N` (centres unmarked), the Emax at 300 µM is 36%.

In the case of `CCC(C)CC(C)N` (centres unmarked) [1,3-Dimethylamylamine, 1,3-dimethylamylamine], the Emax at 300 µM was 52%.

As to `CN(C)CCO` [Dimethylaminoethanol, dimethylaminoethanol], the Emax at 300 µM was approximately 5%.

Still in this assay, the particulars now being: cAMP, HEK293T-hTAAR1 cells, 1 h exposure; average (95% confidence interval), 3–5 experiments.
In turn, `CC(C)CC(C)N` (centres unmarked) registered an EC50 of more than 300 µM.

Molecule `CC(C)CCCC(C)N` (centres unmarked) yielded a half-maximal effective concentration (EC50) of more than 300 µM.

Molecule `CCC(C)CC(C)N` (centres unmarked) [1,3-Dimethylamylamine, 1,3-dimethylamylamine] gave an EC50 of more than 300 µM.

`CN(C)CCO` [Dimethylaminoethanol, dimethylaminoethanol] gave a concentration giving a half-maximal response (EC50) of more than 300 µM.

Molecule `CN(C)CCc1ccccc1` [Dimethylphenethylamine, N,N-dimethylphenethylamine] gave an EC50 of 21 µM.

On to `Oc1ccc(CC2NCCc3cc(O)c(O)cc32)cc1` (centres unmarked) [Higenamine, higenamine], for which a half-maximal effect (EC50) was put at 0.98 µM.

Take `CN(C)CCc1ccc(O)cc1` [Hordenine, hordenine]: the EC50 stood at 47 µM. Compared with the last molecule, the EC50 is about 48-fold higher.
